According to patent US10294202B2, “Pyrrolidinones as herbicides” (FMC Corporation, priority 2013, dated 2019):

Columns and labels:
blackgrass = assay: Test C pre-/postemergence herbicide test; type: in vivo, Alopecurus myosuroides
In short: (§1)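 Greenhouse plants scored visually against untreated controls 13–15 days after treatment, 0 = no effect, 100 = complete control. Test chemicals in a non-phytotoxic solvent with surfactant were applied either to soil (loam/sand) at planting or to foliage of 1- to 4-leaf plants, 2–18 cm tall.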

rice = assay: Test B flooded paddy test; type: in vivo, Oryza sativa; settings: 500 g ai/ha, Flood; scale of 0 to 100 where 0 is no effect and 100 is complete control
In short: (§2)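 Plants grown to 2-leaf stage; pots flooded 3 cm above soil and compound applied directly into paddy water, depth held throughout. Visual rating against untreated controls after 13 to 15 days in greenhouse, 0 (no effect) to 100 (complete control).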

velvetleaf = assay: Test C pre-/postemergence herbicide test; type: in vivo, Abutilon theophrasti
In short: as §1

barnyardgrass = assay: Test B flooded paddy test; type: in vivo, Echinochloa crus-galli; settings: 500 g ai/ha, Flood; scale of 0 to 100 where 0 is no effect and 100 is complete control
In short: as §2

oat, wild = assay: Test C pre-/postemergence herbicide test; type: in vivo, Avena fatua; settings: Postemergence
In short: as §1

waterhemp = assay: Test C pre-/postemergence herbicide test; type: in vivo, Amaranthus rudis
In short: as §1

oilseed rape = assay: Test C pre-/postemergence herbicide test; type: in vivo, Brassica napus
In short: as §1

sedge, umbrella = assay: Test B flooded paddy test; type: in vivo, Cyperus difformis; settings: 500 g ai/ha, Flood; scale of 0 to 100 where 0 is no effect and 100 is complete control
In short: as §2

nutsedge, yellow = assay: Test C pre-/postemergence herbicide test; type: in vivo, Cyperus esculentus
In short: as §1

giant foxtail = assay: Test A pre-/postemergence herbicide test; type: in vivo, Setaria faberii
In short: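 Visual 0–100 ratings (100 = complete control) made about 10 days after treatment, greenhouse-held plants compared with untreated controls. Treatments: postemergence sprays on one- to two-leaf plants (2–10 cm tall) and preemergence directed soil sprays after planting in loam–sand, chemicals formulated in non-phytotoxic solvent containing surfactant.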

ducksalad = assay: Test B flooded paddy test; type: in vivo, Heteranthera limosa; settings: 500 g ai/ha, Flood; scale of 0 to 100 where 0 is no effect and 100 is complete control
In short: as §2

ragweed = assay: Test C pre-/postemergence herbicide test; type: in vivo, Ambrosia elatior
In short: as §1

pigweed = assay: Test C pre-/postemergence herbicide test; type: in vivo, Amaranthus retroflexus
In short: as §1

[1] = Postemergence, 31 g ai/ha, scale 0 to 100 (0 no effect, 100 complete control)
[2] = Postemergence, 62 g ai/ha, scale 0 (no effect) to 100 (complete control)
[3] = Postemergence, 125 g ai/ha, scale 0 to 100 (0 no effect, 100 complete control)
[4] = Postemergence, 250 g ai/ha, scale 0 to 100 (0 no effect, 100 complete control)
[5] = Preemergence, 31 g ai/ha, scale 0 to 100, 0 is no effect and 100 is complete control
[6] = Preemergence, 62 g ai/ha, scale 0 to 100 (0 no effect, 100 complete control)
[7] = Preemergence, 125 g ai/ha, scale 0 to 100 (0 no effect, 100 complete control)
[8] = 31 g ai/ha, scale 0 to 100 (0 no effect, 100 complete control)
[9] = 62 g ai/ha, scale 0 (no effect) to 100 (complete control)
[10] = 125 g ai/ha, scale 0 to 100 (0 no effect, 100 complete control)
[11] = 250 g ai/ha, scale 0 to 100 (0 no effect, 100 complete control)
[12] = Postemergence, 125 g ai/ha, 0 to 100 scale, 0 is no effect, 100 is complete control
[13] = Postemergence, 500 g ai/ha, 0 to 100 scale (0 no effect, 100 complete control)
[14] = Preemergence, 125 g ai/ha, 0 to 100 scale where 0 is no effect and 100 is complete control
[15] = preemergence, 500 g ai/ha, 0 to 100 scale, 0 is no effect and 100 is complete control

SMILES: O=C1NCC(c2cc(F)cc(F)c2)C1C(=O)Nc1ccc(F)cc1F (racemic) [Compound 278]
- Plant response rating, Blackgrass (blackgrass; [1]): 0
- Plant response rating, Blackgrass (blackgrass; [2]): 0
- Plant response rating, Blackgrass (blackgrass; [3]): 0
- Plant response rating, Blackgrass (blackgrass; [4]): 0
- Blackgrass plant response rating (blackgrass; [5]): 0
- Blackgrass plant response rating (blackgrass; [6]): 0
- Plant response rating, Blackgrass (blackgrass; [7]): 0
- Plant response rating (scale of 0 to 100), Blackgrass (blackgrass; Preemergence, 250 g ai/ha): 0
- Plant response rating, Rice (rice): 0
- Plant response rating, Velvetleaf (velvetleaf; [1]): 0
- Plant response rating, Velvetleaf (velvetleaf; [2]): 0
- Plant response rating, Velvetleaf (velvetleaf; [3]): 10
- Plant response rating, Velvetleaf (velvetleaf; [4]): 20
- Velvetleaf plant response rating (velvetleaf; [5]): 0
- Velvetleaf plant response rating (velvetleaf; [6]): 0
- Plant response rating, Velvetleaf (velvetleaf; [7]): 0
- Plant response rating (scale of 0 to 100), Velvetleaf (velvetleaf; Preemergence, 250 g ai/ha): 0
- Plant response rating, Barnyardgrass (barnyardgrass): 60
- Plant response rating, Oat, Wild (oat, wild; [8]): 0
- Plant response rating, Oat, Wild (oat, wild; [9]): 0
- Plant response rating, Oat, Wild (oat, wild; [10]): 0
- Plant response rating, Oat, Wild (oat, wild; [11]): 0
- Plant response rating, Waterhemp (waterhemp; [1]): 0
- Plant response rating, Waterhemp (waterhemp; [2]): 0
- Plant response rating, Waterhemp (waterhemp; [3]): 5
- Plant response rating, Waterhemp (waterhemp; [4]): 5
- Waterhemp plant response rating (waterhemp; [5]): 0
- Waterhemp plant response rating (waterhemp; [6]): 0
- Plant response rating, Waterhemp (waterhemp; [7]): 0
- Plant response rating (scale of 0 to 100), Waterhemp (waterhemp; Preemergence, 250 g ai/ha): 0
- Plant response rating, Oilseed Rape (oilseed rape; [1]): 0
- Plant response rating, Oilseed Rape (oilseed rape; [2]): 0
- Plant response rating, Oilseed Rape (oilseed rape; [3]): 5
- Plant response rating, Oilseed Rape (oilseed rape; [4]): 0
- Oilseed Rape plant response rating (oilseed rape; [5]): 0
- Oilseed Rape plant response rating (oilseed rape; [6]): 0
- Plant response rating, Oilseed Rape (oilseed rape; [7]): 0
- Plant response rating (scale of 0 to 100), Oilseed Rape (oilseed rape; Preemergence, 250 g ai/ha): 5
- Plant response rating, Sedge, Umbrella (sedge, umbrella): 0
- Plant response rating, Nutsedge, Yellow (nutsedge, yellow; [1]): 0
- Plant response rating, Nutsedge, Yellow (nutsedge, yellow; [2]): 0
- Plant response rating, Nutsedge, Yellow (nutsedge, yellow; [3]): 0
- Plant response rating, Nutsedge, Yellow (nutsedge, yellow; [4]): 15
- Nutsedge, Yellow plant response rating (nutsedge, yellow; [5]): 0
- Nutsedge, Yellow plant response rating (nutsedge, yellow; [6]): 0
- Plant response rating, Nutsedge, Yellow (nutsedge, yellow; [7]): 5
- Plant response rating (scale of 0 to 100), Nutsedge, Yellow (nutsedge, yellow; Preemergence, 250 g ai/ha): 5
- Plant response rating, Foxtail, Giant (giant foxtail; [12]): 80
- Plant response rating, Foxtail, Giant (giant foxtail; [13]): 80
- Plant response rating, Foxtail, Giant (giant foxtail; [14]): 90
- Plant response rating, Foxtail, Giant (giant foxtail; [15]): 90
- Plant response rating, Ducksalad (ducksalad): 100
- Plant response rating, Ragweed (ragweed; [1]): 0
- Plant response rating, Ragweed (ragweed; [2]): 0
- Plant response rating, Ragweed (ragweed; [3]): 10
- Plant response rating, Ragweed (ragweed; [4]): 0
- Ragweed plant response rating (ragweed; [5]): 0
- Ragweed plant response rating (ragweed; [6]): 0
- Plant response rating, Ragweed (ragweed; [7]): 0
- Plant response rating (scale of 0 to 100), Ragweed (ragweed; Preemergence, 250 g ai/ha): 0
- Plant response rating, Pigweed (pigweed; [1]): 0
- Plant response rating, Pigweed (pigweed; [2]): 5
- Plant response rating, Pigweed (pigweed; [3]): 15
- Plant response rating, Pigweed (pigweed; [4]): 15
- Pigweed plant response rating (pigweed; [5]): 5
- Pigweed plant response rating (pigweed; [6]): 0
- Plant response rating, Pigweed (pigweed; [7]): 0
- Plant response rating (scale of 0 to 100), Pigweed (pigweed; Preemergence, 250 g ai/ha): 0

SMILES: O=C1NCC(c2cc(F)cc(F)c2)C1C(=O)Nc1cccc(F)c1F (racemic) [Compound 279]
- Plant response rating, Blackgrass (blackgrass; [1]): 0
- Plant response rating, Blackgrass (blackgrass; [2]): 0
- Plant response rating, Blackgrass (blackgrass; [3]): 0
- Plant response rating, Blackgrass (blackgrass; [4]): 0
- Blackgrass plant response rating (blackgrass; [5]): 0
- Blackgrass plant response rating (blackgrass; [6]): 0
- Plant response rating, Blackgrass (blackgrass; [7]): 30
- Plant response rating (scale of 0 to 100), Blackgrass (blackgrass; Preemergence, 250 g ai/ha): 85
- Plant response rating, Rice (rice): 10
- Plant response rating, Velvetleaf (velvetleaf; [1]): 0
- Plant response rating, Velvetleaf (velvetleaf; [2]): 10
- Plant response rating, Velvetleaf (velvetleaf; [3]): 10
- Plant response rating, Velvetleaf (velvetleaf; [4]): 10
- Velvetleaf plant response rating (velvetleaf; [5]): 0
- Velvetleaf plant response rating (velvetleaf; [6]): 0
- Plant response rating, Velvetleaf (velvetleaf; [7]): 0
- Plant response rating (scale of 0 to 100), Velvetleaf (velvetleaf; Preemergence, 250 g ai/ha): 30
- Plant response rating, Barnyardgrass (barnyardgrass): 75
- Plant response rating, Oat, Wild (oat, wild; [8]): 0
- Plant response rating, Oat, Wild (oat, wild; [9]): 0
- Plant response rating, Oat, Wild (oat, wild; [10]): 0
- Plant response rating, Oat, Wild (oat, wild; [11]): 0
- Plant response rating, Waterhemp (waterhemp; [1]): 5
- Plant response rating, Waterhemp (waterhemp; [2]): 20
- Plant response rating, Waterhemp (waterhemp; [3]): 15
- Plant response rating, Waterhemp (waterhemp; [4]): 15
- Waterhemp plant response rating (waterhemp; [5]): 0
- Waterhemp plant response rating (waterhemp; [6]): 15
- Plant response rating, Waterhemp (waterhemp; [7]): 55
- Plant response rating (scale of 0 to 100), Waterhemp (waterhemp; Preemergence, 250 g ai/ha): 80
- Plant response rating, Oilseed Rape (oilseed rape; [1]): 0
- Plant response rating, Oilseed Rape (oilseed rape; [2]): 30
- Plant response rating, Oilseed Rape (oilseed rape; [3]): 0
- Plant response rating, Oilseed Rape (oilseed rape; [4]): 0
- Oilseed Rape plant response rating (oilseed rape; [5]): 0
- Oilseed Rape plant response rating (oilseed rape; [6]): 0
- Plant response rating, Oilseed Rape (oilseed rape; [7]): 30
- Plant response rating (scale of 0 to 100), Oilseed Rape (oilseed rape; Preemergence, 250 g ai/ha): 60
- Plant response rating, Sedge, Umbrella (sedge, umbrella): 0
- Plant response rating, Nutsedge, Yellow (nutsedge, yellow; [1]): 0
- Plant response rating, Nutsedge, Yellow (nutsedge, yellow; [2]): 0
- Plant response rating, Nutsedge, Yellow (nutsedge, yellow; [3]): 0
- Plant response rating, Nutsedge, Yellow (nutsedge, yellow; [4]): 0
- Nutsedge, Yellow plant response rating (nutsedge, yellow; [5]): 0
- Nutsedge, Yellow plant response rating (nutsedge, yellow; [6]): 0
- Plant response rating, Nutsedge, Yellow (nutsedge, yellow; [7]): 0
- Plant response rating (scale of 0 to 100), Nutsedge, Yellow (nutsedge, yellow; Preemergence, 250 g ai/ha): 55
- Plant response rating, Foxtail, Giant (giant foxtail; [12]): 80
- Plant response rating, Foxtail, Giant (giant foxtail; [13]): 90
- Plant response rating, Foxtail, Giant (giant foxtail; [14]): 90
- Plant response rating, Foxtail, Giant (giant foxtail; [15]): 90
- Plant response rating, Ducksalad (ducksalad): 100
- Plant response rating, Ragweed (ragweed; [1]): 15
- Plant response rating, Ragweed (ragweed; [2]): 20
- Plant response rating, Ragweed (ragweed; [3]): 35
- Plant response rating, Ragweed (ragweed; [4]): 35
- Ragweed plant response rating (ragweed; [5]): 0
- Ragweed plant response rating (ragweed; [6]): 0
- Plant response rating, Ragweed (ragweed; [7]): 10
- Plant response rating (scale of 0 to 100), Ragweed (ragweed; Preemergence, 250 g ai/ha): 65
- Plant response rating, Pigweed (pigweed; [1]): 30
- Plant response rating, Pigweed (pigweed; [2]): 10
- Plant response rating, Pigweed (pigweed; [3]): 30
- Plant response rating, Pigweed (pigweed; [4]): 20
- Pigweed plant response rating (pigweed; [5]): 0
- Pigweed plant response rating (pigweed; [6]): 5
- Plant response rating, Pigweed (pigweed; [7]): 0
- Plant response rating (scale of 0 to 100), Pigweed (pigweed; Preemergence, 250 g ai/ha): 75
